According to patent US20260347338A1, “PYRIMIDINE/PYRIDINE DERIVATIVES OR SALTS THEREOF AND PHARMACEUTICAL COMPOSITIONS COMPRISING THE SAME” (YUHAN CORPORATION, priority 2023, published 2026):
Counter-ions that a name gives are not always drawn.

molecular target: T1, human recombinant HPK1 (Homo sapiens, UniProt Q92918); assay: Inhibitory activity against human recombinant HPK1 (TR-FRET); format: biochemical; details: ULight-p70S6K peptide, ATP at Km, room temperature, 1 hour, 0.32 to 1000 nM compound
T1 construct: purchased BPS Bioscience
How it was run: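 Recombinant human HPK1 with ULight-p70S6K peptide and ATP at Km, 1 h at room temperature in HEPES pH 7.4 buffer with Mg2+, Mn2+, EGTA, DTT; compounds 0.32–1000 nM final. EDTA stop, Eu-anti-phosphopeptide TR-FRET read (665 nm); IC50 from % inhibition versus DMSO, binned A–D at 10, 50, 100 nM.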

T1 sequence (Q92918 whole entry): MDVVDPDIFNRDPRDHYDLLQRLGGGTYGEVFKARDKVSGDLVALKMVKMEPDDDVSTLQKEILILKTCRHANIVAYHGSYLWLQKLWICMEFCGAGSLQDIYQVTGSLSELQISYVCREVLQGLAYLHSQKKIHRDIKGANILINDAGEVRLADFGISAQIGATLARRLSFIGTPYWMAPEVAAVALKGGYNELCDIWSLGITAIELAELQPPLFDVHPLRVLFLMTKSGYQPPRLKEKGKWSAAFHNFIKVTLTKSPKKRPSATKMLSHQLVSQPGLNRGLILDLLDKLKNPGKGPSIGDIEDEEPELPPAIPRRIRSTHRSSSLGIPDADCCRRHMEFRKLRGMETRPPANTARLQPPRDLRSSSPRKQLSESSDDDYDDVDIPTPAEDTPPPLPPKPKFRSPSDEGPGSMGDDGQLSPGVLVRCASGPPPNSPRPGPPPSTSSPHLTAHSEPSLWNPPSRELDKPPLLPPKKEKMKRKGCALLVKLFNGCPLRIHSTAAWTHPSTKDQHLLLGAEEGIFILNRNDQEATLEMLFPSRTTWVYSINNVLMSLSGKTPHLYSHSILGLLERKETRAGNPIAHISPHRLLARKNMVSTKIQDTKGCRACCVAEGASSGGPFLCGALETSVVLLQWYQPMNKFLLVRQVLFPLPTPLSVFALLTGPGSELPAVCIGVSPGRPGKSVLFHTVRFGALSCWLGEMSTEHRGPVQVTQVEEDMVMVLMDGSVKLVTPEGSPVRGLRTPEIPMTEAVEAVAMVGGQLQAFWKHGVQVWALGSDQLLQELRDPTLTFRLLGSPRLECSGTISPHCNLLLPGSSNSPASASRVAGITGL

SMILES | IC50
COc1cccc(F)c1-c1nccc(Nc2cc(N3CCC[C@H](N)C3)c(C#Cc3cnn(CC(F)F)c3)cn2)n1 [Example 165, (S)-N-(4-(3-aminopiperidin-1-yl)-5-((1-(2,2-difluoroethyl)-1H-pyrazol-4-yl)ethynyl)pyridin-2-yl)-2-(2-fluoro-6-methoxyphenyl)pyrimidin-4-amine hydrochloride] | ≤ 10 nM
COc1cc(F)cc(F)c1-c1nccc(Nc2cc(N3CCC[C@H](O)C3)c(C#Cc3cnn(C(F)F)c3)cn2)n1 [Example 217, (S)-1-(2-((2-(2,4-difluoro-6-methoxyphenyl)pyrimidin-4-yl)amino)-5-((1-(difluoromethyl)-1H-pyrazol-4-yl)ethynyl)pyridin-4-yl)piperidin-3-ol] | ≤ 10 nM
O[C@H]1CCCN(c2cc(Nc3ccnc(-c4cc5nccnc5cc4F)n3)ncc2-c2cnn(C3CCOCC3)c2)C1 [Example 69, (S)-1-(2-((2-(7-fluoroquinoxalin-6-yl)pyrimidin-4-yl)amino)-5-(1-(tetrahydro-2H-pyran-4-yl)-1H-pyrazol-4-yl)pyridin-4-yl)piperidin-3-ol] | ≤ 10 nM
COc1cccc(F)c1-c1nccc(Nc2cc(N3CCC[C@H](N)C3)c(-c3cnn(CCN4CCCC4)c3)cn2)n1 [Example 163, (S)-N-(4-(3-aminopiperidin-1-yl)-5-(1-(2-(pyrrolidin-1-yl)ethyl)-1H-pyrazol-4-yl)pyridin-2-yl)-2-(2-fluoro-6-methoxyphenyl)pyrimidin-4-amine hydrochloride] | ≤ 10 nM
COc1cccc(F)c1-c1nc(Nc2cc(N3CCC[C@H](N)C3)c(-c3cnn(CC(F)(F)F)c3)cn2)ccc1F [Example 100, 4-((S)-3-aminopiperidin-1-yl)-N-(5-fluoro-6-(2-fluoro-6-methoxyphenyl)pyridin-2-yl)-5-(1-(2,2,2-trifluoroethyl)-1H-pyrazol-4-yl)pyridin-2-amine hydrochloride] | ≤ 10 nM
CNC(=O)c1cc(F)c(-c2nccc(Nc3cc(N4CCC[C@H](N)C4)c(-c4cnn(C(F)F)c4)cn3)n2)c(OC)c1 [Example 186, (S)-4-(4-((4-(3-aminopiperidin-1-yl)-5-(1-(difluoromethyl)-1H-pyrazol-4-yl)pyridin-2-yl)amino)pyrimidin-2-yl)-3-fluoro-5-methoxy-N-methylbenzamide hydrochloride] | ≤ 10 nM
COc1cccc(F)c1-c1nccc(Nc2cc(N3CCC[C@H](O)C3)c(-c3cccnc3)cn2)n1 [Example 42, (S)-1-(6-((2-(2-fluoro-6-methoxyphenyl)pyrimidin-4-yl)amino)-[3,3′-bipyridin]-4-yl)piperidin-3-ol] | 10 to 50 nM
COc1cc(F)cc(F)c1-c1nccc(Nc2cc(N3CCC[C@H](N)C3)c(-c3cnn(CC(F)F)c3)cn2)n1 [Example 158, (S)-N-(4-(3-aminopiperidin-1-yl)-5-(1-(2,2-difluoroethyl)-1H-pyrazol-4-yl)pyridin-2-yl)-2-(2,4-difluoro-6-methoxyphenyl)pyrimidin-4-amine hydrochloride] | ≤ 10 nM
COc1cccc(F)c1-c1nccc(Nc2cc(N3CCC[C@H](N)C3)c(-c3cnc4c(c3)OCCN4C)cn2)n1 [Example 256, (S)-N-(4-(3-aminopiperidin-1-yl)-5-(4-methyl-3,4-dihydro-2H-pyrido[3,2-b][1,4]oxazin-7-yl)pyridin-2-yl)-2-(2-fluoro-6-methoxyphenyl)pyrimidin-4-amine hydrochloride] | ≤ 10 nM
COc1cccc(F)c1-c1nc(Nc2cc(N3CCC[C@H](O)C3)c(-c3cnn(C(F)F)c3)cn2)ccc1[N+](=O)[O-] [Example 145, (3S)-1-(5-(1-(difluoromethyl)-1H-pyrazol-4-yl)-2-((6-(2-fluoro-6-methoxyphenyl)-5-nitropyridin-2-yl)amino)pyridin-4-yl)piperidin-3-ol] | ≤ 10 nM
COc1cccc(F)c1-c1nc(Nc2cc(N3CC[C@@H](C)[C@H](N)C3)c(-c3cnn(C(F)F)c3)cn2)ccc1C#N [Example 337, 6-((4-((3S,4R)-3-amino-4-methylpiperidin-1-yl)-5-(1-(difluoromethyl)-1H-pyrazol-4-yl)pyridin-2-yl)amino)-2-(2-fluoro-6-methoxyphenyl)-nicotinonitrile hydrochloride] | ≤ 10 nM
COc1cccc(F)c1-c1nccc(Nc2cc(N3C[C@@H](N)C[C@H](F)C3)c(-c3cnn(C(F)F)c3)cn2)n1 [Example 304, N-(4-((3S,5S)-3-amino-5-fluoropiperidin-1-yl)-5-(1-(difluoromethyl)-1H-pyrazol-4-yl)pyridin-2-yl)-2-(2-fluoro-6-methoxyphenyl)pyrimidin-4-amine hydrochloride] | ≤ 10 nM
COc1ccc(F)c(F)c1-c1nccc(Nc2cc(N3CCC[C@H](O)C3)c(-c3cnn(C4CCOCC4)c3)cn2)n1 [Example 24, (S)-1-(2-((2-(2,3-difluoro-6-methoxyphenyl)pyrimidin-4-yl)amino)-5-(1-(tetrahydro-2H-pyran-4-yl)-1H-pyrazol-4-yl)pyridin-4-yl)piperidin-3-ol] | ≤ 10 nM
N[C@H]1CCCN(c2cc(Nc3ccnc(-c4cccnc4O)n3)ncc2-c2cnn(C3CCOCC3)c2)C1 [Example 80, (S)-3-(4-((4-(3-aminopiperidin-1-yl)-5-(1-(tetrahydro-2H-pyran-4-yl)-1H-pyrazol-4-yl)pyridin-2-yl)amino)pyrimidin-2-yl)pyridin-2-ol hydrochloride] | ≤ 10 nM
COc1cccc(F)c1-c1nccc(Nc2cc(N3CCC[C@H](N)C3)c(-c3ccc(N4CCNCC4)nc3)cn2)n1 [Example 241, (S)-4-(3-aminopiperidin-1-yl)-N-(2-(2-fluoro-6-methoxyphenyl)pyrimidin-4-yl)-6′-(piperazin-1-yl)-[3,3′-bipyridin]-6-amine hydrochloride] | ≤ 10 nM
COc1cc(F)cc(F)c1-c1nc(Nc2cc(N3CCC[C@H](O)C3)c(-c3cnn(C4CCOCC4)c3)cn2)ccc1[N+](=O)[O-] [Example 224, (3S)-1-(2-((6-(2,4-difluoro-6-methoxyphenyl)-5-nitropyridin-2-yl)amino)-5-(1-(tetrahydro-2H-pyran-4-yl)-1H-pyrazol-4-yl)pyridin-4-yl)piperidin-3-ol] | ≤ 10 nM
CCn1cc(-c2cnc(Nc3ccc(C#N)c(-c4c(F)cccc4OC)n3)cc2N2CCC[C@H](N)C2)cn1 [Example 327, 6-((4-((S)-3-aminopiperidin-1-yl)-5-(1-ethyl-1H-pyrazol-4-yl)pyridin-2-yl)amino)-2-(2-fluoro-6-methoxyphenyl)nicotinonitrile hydrochloride] | ≤ 10 nM
COc1cccc(F)c1-c1nccc(Nc2cc(N3CCC[C@H](O)C3)c(-c3ccc(CN4CCN(C)CC4)nc3)cn2)n1 [Example 30, (S)-1-(6-((2-(2-fluoro-6-methoxyphenyl)pyrimidin-4-yl)amino)-6′-((4-methylpiperazin-1-yl)methyl)-[3,3′-bipyridin]-4-yl)piperidin-3-ol] | 10 to 50 nM
COc1cccc(F)c1-c1nccc(Nc2cc(N3CCC[C@H](N)C3)c(-c3ccc(F)c(C(F)(F)F)c3)cn2)n1 [Example 293, (S)-N-(4-(3-aminopiperidin-1-yl)-5-(4-fluoro-3-(trifluoromethyl)phenyl)pyridin-2-yl)-2-(2-fluoro-6-methoxyphenyl)pyrimidin-4-amine hydrochloride] | ≤ 10 nM
